ChEMBL document CHEMBL4334438, “Discovery of novel glycogen synthase kinase-3α inhibitors: Structure-based virtual screening, preliminary SAR and biological evaluation for treatment of acute myeloid leukemia” (Eur J Med Chem, 2019)

What was measured:
[1] = biological target: Protein kinase C iota type (Homo sapiens) (UniProt P41743); experiment: Inhibition of recombinant full-length human PKCiota assessed as residual activity at 1 uM using ERMRPRKRQGSVRRRV as substrate incubated for 40 mins in presence of [gamma33P]ATP by scintillation counting based radiometry assay relative to control
[2] = biological target: Mitogen-activated protein kinase kinase kinase 3 (Homo sapiens) (UniProt Q99759); experiment: Inhibition of recombinant full length human MEKK3 assessed as residual activity at 1 uM using myelin basic protein as substrate incubated for 120 mins in presence of [gamma-33ATP by scintillation counting based radiometry assay relative to control
[3] = tested on: Tyrosine-protein kinase ABL1 (Homo sapiens), P00519 [M351T]; experiment: Inhibition of human ABL1 M351T mutant (27 to end residues) assessed as residual activity at 1 uM using EAIYAAPFAKKK as substrate incubated for 40 mins in presence of [gamma-33ATP] by scintillation counting based radiometry assay relative to control
[4] = biological target: Serine/threonine-protein kinase BRSK1 (Homo sapiens) (UniProt Q8TDC3); experiment: Inhibition of recombinant human BRSK1 ( 2 to end residues) assessed as residual activity at 1 uM using KKKVSRSGLYRSPSMPENLNRPR as substrate incubated for 40 mins in presence of [gamma-33ATP] by scintillation counting based radiometry assay relative to control
[5] = biological target: Serine/threonine-protein kinase pim-3 (Homo sapiens) (UniProt Q86V86); experiment: Inhibition of recombinant human Pim3 (2 to end residues) assessed as residual activity at 1 uM using RSRHSSYPAGT as substrate measured after 40 mins in presence of [gamma33P]ATP by scintillation counting method relative to control
[6] = biological target: Tyrosine-protein kinase HCK (Homo sapiens) (UniProt P08631); experiment: Inhibition of human HCK activated (230 to 497 residues) assessed as residual activity at 1 uM using GGMEDIYFEFMGGKKK as substrate after 40 mins by [gamma-33ATP] radiometric assay relative to control
[7] = biological target: Cyclin-dependent kinase 2/cyclin E1 (Homo sapiens) (UniProt P24864+P24941); experiment: Inhibition of recombinant full length human CDK2/CyclinE assessed as residual activity at 1 uM using Histone H1 as substrate incubated for 40 mins in presence of [gamma-33ATP] by scintillation counting based radiometry assay relative to control; type: protein-complex assay
[8] = tested on: Homeodomain-interacting protein kinase 2 (Homo sapiens), Q9H2X6 [UNDEFINED MUTATION]; experiment: Inhibition of human HIPK2 I471N mutant (165 to 564 residues) assessed as residual activity at 1 uM using myelin basic protein as substrate after 40 mins by [gamma-33ATP] radiometric assay relative to control
[9] = biological target: Serine/threonine-protein kinase 25 (Homo sapiens) (UniProt O00506); experiment: Inhibition of human STK25 (1 to 308 residues) assessed as residual activity at 1 uM using RLGRDKYKTLRQIRQ as substrate measured after 40 mins in presence of [gamma33P]ATP by scintillation counting method relative to control
[10] = biological target: Calcium/calmodulin-dependent protein kinase type II subunit delta (Homo sapiens) (UniProt Q13557); experiment: Inhibition of recombinant full length human CaMK2delta assessed as residual activity at 1 uM […] incubated for 40 mins in presence of [gamma-33ATP] by scintillation counting based radiometry assay relative to control
[11] = biological target: Serine/threonine-protein kinase 26 (Homo sapiens) (UniProt Q9P289); experiment: Inhibition of recombinant human MST4 (4 to 304 residues) assessed as residual activity at 1 uM using RLGRDKYKTLRQIRQ as substrate measured after 40 mins in presence of [gamma33P]ATP by scintillation counting method relative to control
[12] = biological target: Phosphatidylinositol 4-phosphate 3-kinase C2 domain-containing subunit alpha (Homo sapiens) (UniProt O00443); experiment: Inhibition of recombinant human PI3KC2alpha (299 to end residues) at 1 uM assessed as residual activity at 1 uM using phosphatidylinositol as substrate measured after 40 mins by HTRF assay
[13] = biological target: Serine/threonine-protein kinase 16 (Homo sapiens) (UniProt O75716); experiment: Inhibition of human STK16 assessed as residual activity at 1 uM by radiometric method relative to control
[14] = tested on: Casein kinase I isoform gamma-3 (Homo sapiens), Q9Y6M4 [UNDEFINED MUTATION]; experiment: Inhibition of recombinant human CK1gamma3 K91E/R174G/E302D mutant (1 to 330 residues) assessed as residual activity at 1 uM using KRRRALS(p)VASLPGL as substrate incubated for 40 mins in presence of [gamma-33ATP] by scintillation counting based radiometry assay relative to control
[15] = biological target: Calcium/calmodulin-dependent protein kinase type II subunit alpha (Homo sapiens) (UniProt Q9UQM7); experiment: Inhibition of recombinant full length human CaMK2alpha assessed as residual activity at 1 uM using KKLNRTLSFAEPG as substrate incubated for 40 mins in presence of [gamma-33ATP] by scintillation counting based radiometry assay relative to control
[16] = biological target: Phosphorylase b kinase gamma catalytic chain, skeletal muscle/heart isoform (Homo sapiens) (UniProt Q16816); experiment: Inhibition of recombinant full-length human PhKgamma1 assessed as residual activity at 1 uM using KKLNRTLSFAEPG as substrate measured after 120 mins in presence of [gamma33P]ATP by scintillation counting method relative to control
[17] = organism: Mus musculus; experiment: Inhibition of recombinant full-length mouse PI3K p110alpha/p85alpha at 1 uM assessed as residual activity at 1 uM using phosphatidylinositol-4, 5-bisphosphate as substrate measured after 40 mins by HTRF assay
[18] = biological target: Serine/threonine-protein kinase Chk2 (Homo sapiens) (UniProt O96017); experiment: Inhibition of recombinant human CHK2 (5 to end residues) assessed as residual activity at 1 uM using KKKVSRSGLYRSPSMPENLNRPR as substrate incubated for 40 mins in presence of [gamma-33ATP] by scintillation counting based radiometry assay relative to control
[19] = biological target: NUAK family SNF1-like kinase 1 (Homo sapiens) (UniProt O60285); experiment: Inhibition of recombinant human ARK5 (2 to end residues) assessed as residual activity at 1 uM using KKKVSRSGLYRSPSMPENLNRPR as substrate incubated for 40 mins in presence of [gamma-33ATP] by scintillation counting based radiometry assay relative to control
[20] = tested on: Tyrosine-protein kinase ABL1 (Homo sapiens), P00519 [Y253F]; experiment: Inhibition of human ABL1 Y253F mutant (27 to end residues) assessed as residual activity at 1 uM using EAIYAAPFAKKK as substrate incubated for 40 mins in presence of [gamma-33ATP] by scintillation counting based radiometry assay relative to control
[21] = biological target: Casein kinase II subunit alpha (Homo sapiens) (UniProt P68400); experiment: Inhibition of recombinant full length human CK2alpha1 assessed as residual activity at 1 uM using RRRDDDSDDD as substrate incubated 40 mins in presence of [gamma-33ATP] by scintillation counting based radiometry assay relative to control
Sequence of Casein kinase II subunit alpha (Homo sapiens) (P68400 whole entry, looked up): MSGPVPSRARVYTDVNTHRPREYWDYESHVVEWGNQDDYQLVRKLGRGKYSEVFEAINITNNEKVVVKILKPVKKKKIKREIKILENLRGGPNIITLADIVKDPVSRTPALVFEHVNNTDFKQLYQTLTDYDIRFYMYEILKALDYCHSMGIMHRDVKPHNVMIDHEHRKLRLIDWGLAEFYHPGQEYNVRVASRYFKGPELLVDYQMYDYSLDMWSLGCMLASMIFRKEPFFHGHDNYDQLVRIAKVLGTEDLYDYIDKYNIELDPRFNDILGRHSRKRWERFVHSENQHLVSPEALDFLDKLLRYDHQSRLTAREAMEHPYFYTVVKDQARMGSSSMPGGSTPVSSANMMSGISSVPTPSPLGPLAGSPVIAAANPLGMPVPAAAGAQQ

Sequence of Serine/threonine-protein kinase 25 (Homo sapiens) (O00506 whole entry, looked up, the tested form may be a part): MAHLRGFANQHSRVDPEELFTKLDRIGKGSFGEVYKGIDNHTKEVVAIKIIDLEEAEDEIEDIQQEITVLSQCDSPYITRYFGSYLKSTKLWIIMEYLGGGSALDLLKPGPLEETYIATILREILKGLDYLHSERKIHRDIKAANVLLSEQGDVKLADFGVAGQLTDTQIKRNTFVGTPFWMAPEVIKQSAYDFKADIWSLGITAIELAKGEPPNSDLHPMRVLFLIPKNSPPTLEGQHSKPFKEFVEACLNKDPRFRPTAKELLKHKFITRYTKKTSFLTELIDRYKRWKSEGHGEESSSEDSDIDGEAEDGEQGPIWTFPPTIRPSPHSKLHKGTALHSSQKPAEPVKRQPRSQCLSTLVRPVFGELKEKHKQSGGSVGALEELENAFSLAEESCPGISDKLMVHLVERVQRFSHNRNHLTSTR
Sequence of Calcium/calmodulin-dependent protein kinase type II subunit delta (Homo sapiens) (Q13557 whole entry, the tested form may be a part): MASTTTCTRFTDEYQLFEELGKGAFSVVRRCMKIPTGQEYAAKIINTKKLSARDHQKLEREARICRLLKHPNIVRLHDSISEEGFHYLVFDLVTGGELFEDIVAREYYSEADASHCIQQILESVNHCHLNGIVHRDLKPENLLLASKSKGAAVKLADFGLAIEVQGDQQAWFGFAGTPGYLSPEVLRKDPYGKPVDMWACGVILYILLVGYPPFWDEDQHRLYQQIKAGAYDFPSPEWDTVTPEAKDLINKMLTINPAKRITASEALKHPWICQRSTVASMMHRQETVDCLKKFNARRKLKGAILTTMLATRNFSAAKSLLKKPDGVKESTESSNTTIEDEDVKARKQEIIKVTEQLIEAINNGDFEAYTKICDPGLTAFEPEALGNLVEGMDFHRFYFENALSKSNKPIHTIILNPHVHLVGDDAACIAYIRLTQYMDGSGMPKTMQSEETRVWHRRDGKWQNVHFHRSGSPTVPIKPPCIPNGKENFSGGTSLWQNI
Sequence of Serine/threonine-protein kinase 26 (Homo sapiens) (Q9P289 2-416 limits assumed): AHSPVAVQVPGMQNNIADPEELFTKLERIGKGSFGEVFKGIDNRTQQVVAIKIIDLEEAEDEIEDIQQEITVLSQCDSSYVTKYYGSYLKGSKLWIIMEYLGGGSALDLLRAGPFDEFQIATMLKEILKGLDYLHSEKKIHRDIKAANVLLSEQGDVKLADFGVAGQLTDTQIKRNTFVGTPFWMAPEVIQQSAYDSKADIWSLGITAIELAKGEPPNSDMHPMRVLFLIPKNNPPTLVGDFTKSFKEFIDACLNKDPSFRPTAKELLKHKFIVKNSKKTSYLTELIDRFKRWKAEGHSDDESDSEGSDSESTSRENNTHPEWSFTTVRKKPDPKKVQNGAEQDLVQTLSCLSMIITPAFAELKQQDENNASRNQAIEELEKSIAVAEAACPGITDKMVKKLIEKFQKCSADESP
Sequence of Serine/threonine-protein kinase 16 (Homo sapiens) (O75716 whole entry, the tested form may be a part, canonical isoform): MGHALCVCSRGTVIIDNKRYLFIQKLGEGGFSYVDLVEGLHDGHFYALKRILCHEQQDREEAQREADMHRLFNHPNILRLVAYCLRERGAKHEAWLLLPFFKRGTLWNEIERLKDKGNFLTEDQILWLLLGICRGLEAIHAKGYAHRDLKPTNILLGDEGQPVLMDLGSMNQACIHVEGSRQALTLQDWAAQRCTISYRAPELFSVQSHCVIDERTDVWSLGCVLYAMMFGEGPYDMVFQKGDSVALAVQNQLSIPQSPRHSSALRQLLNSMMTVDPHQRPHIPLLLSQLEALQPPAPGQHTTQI
Sequence of Phosphatidylinositol 4-phosphate 3-kinase C2 domain-containing subunit alpha (Homo sapiens) (O00443 whole entry, the tested form may be a part): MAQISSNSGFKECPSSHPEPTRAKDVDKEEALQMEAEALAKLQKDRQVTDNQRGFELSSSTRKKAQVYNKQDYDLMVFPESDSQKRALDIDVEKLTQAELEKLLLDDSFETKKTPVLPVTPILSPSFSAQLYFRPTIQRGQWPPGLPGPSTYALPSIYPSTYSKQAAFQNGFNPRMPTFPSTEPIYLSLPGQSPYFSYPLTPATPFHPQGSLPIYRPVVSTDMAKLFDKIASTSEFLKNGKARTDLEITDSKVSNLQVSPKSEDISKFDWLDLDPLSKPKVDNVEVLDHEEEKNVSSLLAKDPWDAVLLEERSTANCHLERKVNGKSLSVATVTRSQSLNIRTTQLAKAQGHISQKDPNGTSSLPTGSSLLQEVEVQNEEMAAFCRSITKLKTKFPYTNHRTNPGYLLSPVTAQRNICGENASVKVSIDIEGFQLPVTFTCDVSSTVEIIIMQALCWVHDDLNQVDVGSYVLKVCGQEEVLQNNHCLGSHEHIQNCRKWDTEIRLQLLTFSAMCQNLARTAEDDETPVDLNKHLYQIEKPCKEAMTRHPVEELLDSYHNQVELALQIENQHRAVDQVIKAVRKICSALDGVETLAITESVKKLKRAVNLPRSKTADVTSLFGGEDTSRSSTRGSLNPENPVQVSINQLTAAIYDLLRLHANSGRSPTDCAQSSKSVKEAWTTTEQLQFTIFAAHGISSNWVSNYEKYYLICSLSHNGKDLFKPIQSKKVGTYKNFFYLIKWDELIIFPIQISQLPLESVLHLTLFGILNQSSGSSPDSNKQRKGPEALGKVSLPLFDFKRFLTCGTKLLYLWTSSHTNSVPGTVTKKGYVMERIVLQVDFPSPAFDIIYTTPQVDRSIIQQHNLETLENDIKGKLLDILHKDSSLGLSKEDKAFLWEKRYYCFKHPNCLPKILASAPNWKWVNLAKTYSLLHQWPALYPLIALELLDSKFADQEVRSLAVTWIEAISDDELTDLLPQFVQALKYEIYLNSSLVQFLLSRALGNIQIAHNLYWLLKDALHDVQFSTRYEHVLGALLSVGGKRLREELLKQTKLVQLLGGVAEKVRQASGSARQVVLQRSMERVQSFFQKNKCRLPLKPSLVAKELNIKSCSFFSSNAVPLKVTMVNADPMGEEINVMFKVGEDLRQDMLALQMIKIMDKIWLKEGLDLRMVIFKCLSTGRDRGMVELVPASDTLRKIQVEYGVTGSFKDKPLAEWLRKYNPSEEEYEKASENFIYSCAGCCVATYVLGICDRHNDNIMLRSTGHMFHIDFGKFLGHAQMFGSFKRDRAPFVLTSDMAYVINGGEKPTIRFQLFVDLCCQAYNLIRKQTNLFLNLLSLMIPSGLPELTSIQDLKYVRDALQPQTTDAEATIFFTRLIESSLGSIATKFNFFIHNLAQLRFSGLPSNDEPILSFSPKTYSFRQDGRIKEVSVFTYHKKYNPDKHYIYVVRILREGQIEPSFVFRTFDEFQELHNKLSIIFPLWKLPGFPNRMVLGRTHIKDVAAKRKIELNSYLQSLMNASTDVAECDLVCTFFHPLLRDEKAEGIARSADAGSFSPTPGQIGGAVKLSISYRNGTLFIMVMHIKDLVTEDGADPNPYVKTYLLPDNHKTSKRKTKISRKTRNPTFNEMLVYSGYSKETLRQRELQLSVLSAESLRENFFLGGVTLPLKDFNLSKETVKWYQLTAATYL
Sequence of Homeodomain-interacting protein kinase 2 (Homo sapiens), Q9H2X6 [UNDEFINED MUTATION] (Q9H2X6 whole entry, looked up, stated change not applied, the tested form may be a part): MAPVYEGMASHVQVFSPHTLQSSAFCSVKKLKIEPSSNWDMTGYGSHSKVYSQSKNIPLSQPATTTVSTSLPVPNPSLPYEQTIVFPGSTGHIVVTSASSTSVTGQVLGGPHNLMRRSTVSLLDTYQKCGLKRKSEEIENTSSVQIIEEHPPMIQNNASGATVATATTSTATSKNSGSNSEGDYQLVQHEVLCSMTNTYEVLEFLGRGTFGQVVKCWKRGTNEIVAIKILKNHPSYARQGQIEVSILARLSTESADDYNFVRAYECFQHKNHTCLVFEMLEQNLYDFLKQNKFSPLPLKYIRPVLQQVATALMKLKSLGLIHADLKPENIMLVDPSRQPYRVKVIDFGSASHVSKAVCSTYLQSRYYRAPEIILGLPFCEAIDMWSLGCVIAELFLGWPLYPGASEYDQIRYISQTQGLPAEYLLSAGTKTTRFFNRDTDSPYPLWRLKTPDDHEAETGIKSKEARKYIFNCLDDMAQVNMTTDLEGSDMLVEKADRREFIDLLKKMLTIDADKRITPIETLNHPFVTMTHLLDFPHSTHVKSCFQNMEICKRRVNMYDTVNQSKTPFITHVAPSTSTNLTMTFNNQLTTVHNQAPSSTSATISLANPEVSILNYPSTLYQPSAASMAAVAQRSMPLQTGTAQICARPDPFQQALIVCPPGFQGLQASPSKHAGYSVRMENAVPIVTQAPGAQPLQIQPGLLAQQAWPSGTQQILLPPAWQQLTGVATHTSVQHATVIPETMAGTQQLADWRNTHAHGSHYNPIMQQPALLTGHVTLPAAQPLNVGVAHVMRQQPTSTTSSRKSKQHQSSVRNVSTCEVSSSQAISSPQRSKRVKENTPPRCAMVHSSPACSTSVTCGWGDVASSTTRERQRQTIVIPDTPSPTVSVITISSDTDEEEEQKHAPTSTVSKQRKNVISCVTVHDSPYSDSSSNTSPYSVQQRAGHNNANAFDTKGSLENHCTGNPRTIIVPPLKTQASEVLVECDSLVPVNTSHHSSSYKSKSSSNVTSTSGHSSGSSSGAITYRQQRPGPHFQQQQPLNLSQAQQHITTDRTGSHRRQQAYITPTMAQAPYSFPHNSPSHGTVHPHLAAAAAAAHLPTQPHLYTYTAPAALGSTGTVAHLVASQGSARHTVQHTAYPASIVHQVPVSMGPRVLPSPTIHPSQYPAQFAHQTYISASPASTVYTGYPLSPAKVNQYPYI

| SMILES | Activity [1] [%] | Activity [2] [%] | Activity [3] [%] | Activity [4] [%] | Activity [5] [%] | Activity [6] [%] | Activity [7] [%] | Activity [8] [%] | Activity [9] [%] | Activity [10] [%] | Activity [11] [%] | Activity [12] [%] | Activity [13] [%] | Activity [14] [%] | Activity [15] [%] | Activity [16] [%] | Activity [17] [%] | Activity [18] [%] | Activity [19] [%] | Activity [20] [%] | other results |
| --- | --- | --- | --- | --- | --- | --- | --- | --- | --- | --- | --- | --- | --- | --- | --- | --- | --- | --- | --- | --- | --- |
| C=CCOC(=O)c1cc(-c2ccc(/C=C3/NC(=S)NC3=O)o2)ccc1Cl | 105 | 96 | 103 | 89 | 33 | 103 | 58 | 5 | 90 | 65 | 93 | 87 | 90 | 121 | 62 | 94 | 93 | 92 | 79 | 88 | Activity [21]: 59% |
| N=C1NC(=O)/C(=C\c2ccc(-c3cccc([N+](=O)[O-])c3)o2)S1 | 102 | 98 | 97 | 65 | 21 | 80 | 62 | 1 | 97 | 92 | 94 | 100 | 95 | 97 | 80 | 91 | 97 | 94 | 99 | 94 | Activity [21]: 57% |
